Test results from patent US12479803B2, “Antimalarial compounds” (UNIVERSITY OF CENTRAL FLORIDA RESEARCH FOUNDATION, INC., priority 2019, dated 2025).
Where two headings read alike, the source gives them in different places. Marks after values point to notes of the source that are not given here.

Tests used:
[1] = system: malaria infection in mice; conditions: cited from earlier work
[2] = Cytotoxicity assay using MTS in human hepatocytes; type: cell-based; conditions: human, HepG2 cells (human hepatocytes); Table 6B, unit inferred; footnote IC50 (HepG2); read-out: Cytotoxic activity HepG2 (converted)
HepG2 = experiment: Cytotoxicity assay using MTS in human hepatocytes; type: cell-based; conditions: HepG2 versus Dd2
[3] = system: P. falciparum 3D7 strain (CQ-sensitive); experiment: In vitro antiplasmodium activity, 3D7 strain; type: cell-based, Plasmodium falciparum; conditions: Plasmodium falciparum, 3D7; Table 6A, nM; footnote calls it IC50; read-out: Antiplasmodium activity 3D7 (converted)
Experimental: (§1) A set of 104 new styrylquinoline derivatives were synthesized and investigated for in vitro their antimalarial activity. To test antimalarial activities, different dilutions of compounds were added to P. falciparum culture. Following 72 h incubation at 37° C. in an atmosphere containing 5% CO2, the inhibitory property of the compounds were determined by SYBR Green I fluorescence assay. Meanwhile, SARs studies were conducted.

[4] = mouse liver microsomes; value reported from an initial study; cited from earlier work
[5] = In vitro microsomal turnover assay (metabolic stability); conditions: mouse
Experimental: Selectivity of compounds were determined by cytoxicity assay using MTS [(3-(4,5-dimethylthiazol-2-yl)-5-(3-carboxymethoxyphenyl)-2-(4-sulfophenyl)-2H-tetrazolium) in human hepatocytes. The metabolic stability of compounds was determined in mouse liver microsomes using an NADPH-regenerating system. The aqueous solubility at pH 7.4 was determined by UV-visible absorption based method. The permeability was assessed by the in vitro double-sink parallel artificial membrane permeability assay 52 that is a model for the passive transport from the gastrointestinal tract into the blood stream.
To assess the metabolic stability, the selected compounds were subjected to an in vitro microsomal turnover assay with mouse liver microsomal preparations. This assay determines the percentage of the parent compound residues after 60 min incubation (Table 7).

[6] = system: CQ-resistant (Dd2) strain of P. falciparum; experiment: In vitro antiplasmodial activity, SYBR Green I fluorescence assay, Dd2 strain; type: cell-based, Plasmodium falciparum; conditions: for EC50: Plasmodium falciparum
Experimental: as §1
The SAR studies were focused on improving the in vitro activity of 2-arylvinylquinolines against the CQ-resistant Pf Dd2 strain.

In the case of `CCN(CC)CCCC(C)Nc1cc(/C=C/c2ccc([N+](=O)[O-])cc2)nc2ccc(OC)cc12` (stereo not drawn) [Compound according to Formula 1, reference compound], the “mice cured of malaria infection” value ([1]; 100 mg/kg twice daily po, previous study) is given as 4/5, the “in vivo efficacy (efficacious dose)” value ([1]; twice daily, po) is given as 100 mg/kg and the IC50 [2] is given as 12920 ± 70.1 nM. For the same molecule, the “SI, selectivity index = [IC50 (HepG2)/IC50 (Dd2)]” value (HepG2) was 193, the “SI, selectivity index = [IC50 (HepG2)/IC50 (Dd2)]” value (HepG2; listed as Compd. of Formula 1) was 192 and the EC50 [3] was 119 ± 3 nM. For the same molecule, the “% remaining after 60 min” value [4] was 47.8^a %, the “Projected t1/2 (min)” value [4] was 56.2^a min and the “Projected t1/2” value [5] was 41.5 min. The “Clint” value ([5]; microsomes) was 33.4 µL/min/mg, the “% remaining after 60 min” value ([5]; microsomes, 1 h) was 36.7% and the “RI, resistance index = [IC50 (Dd2)/IC50 (3D7)]” value ([6]; Dd2 versus 3D7) was 0.6. For the same molecule, the EC50 ([6]; DD2, Table 6A, unit not given (text gives nM), footnote calls it IC50, read-out: Antiplasmodium activity Dd2 (converted)) was 67 ± 8 nM, the EC50 ([6]; CQ-resistant (Dd2) strain, 72 h incubation, read-out: EC50 (nmol)) was 67 ± 8 nM and the EC50 ([6]; Dd2 strain, read-out: EC50) was 67 ± 8 nM.
